Experimental data: paper PMC3997506, “Novel PPAR Pan Agonist, ZBH Ameliorates Hyperlipidemia and Insulin Resistance in High Fat Diet Induced Hyperlipidemic Hamster” (PLoS ONE, 2014)

Experiments:
[1] = stated in Introduction, no method given; cited from earlier work
Kunming mice = settings: stated in Introduction, no method given; cited from earlier work
hPPARα-LBD = biological target: T1, hPPARα-LBD (Homo sapiens, UniProt Q07869); assay: Ligand binding assay with SPR (Biacore T100); settings: steady state affinity fitting
T1 construct: purchased Cayman chemical
T1 sequence (Q07869 239-466 limits assumed): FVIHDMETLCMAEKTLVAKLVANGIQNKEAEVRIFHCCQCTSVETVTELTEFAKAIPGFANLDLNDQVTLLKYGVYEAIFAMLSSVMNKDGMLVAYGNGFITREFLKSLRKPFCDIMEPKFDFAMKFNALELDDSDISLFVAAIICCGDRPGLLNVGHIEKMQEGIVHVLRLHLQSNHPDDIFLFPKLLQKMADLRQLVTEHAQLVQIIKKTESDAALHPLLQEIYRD
Experimental: The binding affinities of ZBH for PPARα-LBD, PPARδ-LBD or PPARγ-LBD (Cayman chemical, MI, USA) were assayed using SPR-based Biacore T100 (GE Healthcare/Biacore, Uppsala, Sweden) as described previously, [20].

COc1ccc(/C=C/c2cc(OC)cc(OCCCC(C)(C)C(=O)O)c2)cc1 [ZBH, (E)-5-(3-methoxy-5-(4-methoxystyryl)phenoxy) -2,2-dimethylpentanoic acid]
oral bioavailability [1]: 67% | oral LD50 (Kunming mice): > 1.2 g/kg | Kd (hPPARα-LBD): 826 nM
